Data taken from patent US20250186433A1, “ACSS2 INHIBITORS AND METHODS OF USE THEREOF” (EpiVario, Inc., priority 2017, published 2025).
Like-named read-outs stand apart in the source and are kept apart here.

How the values were obtained:
ACSS2 [1] = target: T1, ACSS2 (Homo sapiens, UniProt Q9NR19); assay: Binding to recombinant ACSS2 protein by Label Free MST; settings: for Kd: read-out: Kd [uM] Fluorescence
Text: Binding of ACSS2 inhibitor to recombinant ACSS2 protein by Label Free MST. MicroScale Thermophoresis (MST) is an optical fluorescent method that records the changes in fluorescence of a target molecule as a function of temperature and the concentration of the cognate ligand molecule. The binding of small-molecules to the target proteins lead to changes in the fluorescence that can be measured and translated into binding Kd.

ACSS1 = target: T2, ACSS1 (Homo sapiens, UniProt Q9NUB1); assay: Acyl-CoA synthetases selectivity panel: ACSS1; assay type: biochemical; settings: human recombinant protein, substrate acetate, AMP readout by HPLC; read-out: HPLC based activity assays IC50 (UM) ACSS1
T2 construct: purchased Cusabio, China
T2 sequence (Q9NUB1 38-689): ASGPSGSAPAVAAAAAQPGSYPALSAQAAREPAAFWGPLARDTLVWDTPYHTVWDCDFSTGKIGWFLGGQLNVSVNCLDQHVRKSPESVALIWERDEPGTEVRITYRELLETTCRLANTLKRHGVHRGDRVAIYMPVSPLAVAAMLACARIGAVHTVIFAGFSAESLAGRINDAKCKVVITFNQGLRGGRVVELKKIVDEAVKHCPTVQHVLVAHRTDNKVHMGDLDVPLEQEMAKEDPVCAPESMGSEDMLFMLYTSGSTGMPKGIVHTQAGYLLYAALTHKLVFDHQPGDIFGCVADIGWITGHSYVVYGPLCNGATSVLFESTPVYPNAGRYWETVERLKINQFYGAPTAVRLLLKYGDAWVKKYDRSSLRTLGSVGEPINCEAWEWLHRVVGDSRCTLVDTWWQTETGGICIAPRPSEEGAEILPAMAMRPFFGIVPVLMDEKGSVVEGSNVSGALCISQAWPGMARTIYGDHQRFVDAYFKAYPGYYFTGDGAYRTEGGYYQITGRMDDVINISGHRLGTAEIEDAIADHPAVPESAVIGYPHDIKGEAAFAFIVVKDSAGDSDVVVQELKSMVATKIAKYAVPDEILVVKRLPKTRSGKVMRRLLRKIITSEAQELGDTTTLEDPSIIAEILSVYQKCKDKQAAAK
Text: (§1) The biochemical assays for testing the selectivity of the compounds according to this invention, were done using human recombinant proteins (Cusabio, China). The readout of the assays was AMP levels, the […] of the reactions, by HPLC method. The acyl substrates (Sigma-Aldrich) of the assays were as followed: ACSS1/ACSS2—Acetate, AACS-Acetoacetyl, ACSF2—Octanoate and ACSL5—Palmitate. The protein in this panel include ACSS1, the closest homolog of ACSS2, in addition to representative short/medium/long chain acyl-CoA syntatases.

ACSS2 [2] = target: T1, ACSS2; assay: Thermal stabilization of recombinant ACSS2 protein (Nano-DSF); assay type: binding
Text: Thermal stabilization of recombinant ACSS2 protein by ACSS2 inhibitors. Interaction between the compound and recombinant ACSS2 protein was done by non-labeled Nano-DSF technic using the parameters described below. NanoDSF is a modified differential scanning fluorimetry method to determine protein stability that uses tryptophan or tyrosine fluorescence to monitor protein unfolding. The binding of compound to the protein leads to thermal stabilization that is quantified as the delta in the thermal melting points.

ACSL5 = target: T3, ACSL5 (Homo sapiens, UniProt Q9ULC5); assay: Acyl-CoA synthetases selectivity panel: ACSL5; assay type: biochemical; settings: human recombinant protein, substrate palmitate, AMP readout by HPLC; read-out: HPLC based activity assays IC50 (UM) ACSL5
T3 construct: purchased Cusabio, China
T3 sequence (Q9ULC5 1-683): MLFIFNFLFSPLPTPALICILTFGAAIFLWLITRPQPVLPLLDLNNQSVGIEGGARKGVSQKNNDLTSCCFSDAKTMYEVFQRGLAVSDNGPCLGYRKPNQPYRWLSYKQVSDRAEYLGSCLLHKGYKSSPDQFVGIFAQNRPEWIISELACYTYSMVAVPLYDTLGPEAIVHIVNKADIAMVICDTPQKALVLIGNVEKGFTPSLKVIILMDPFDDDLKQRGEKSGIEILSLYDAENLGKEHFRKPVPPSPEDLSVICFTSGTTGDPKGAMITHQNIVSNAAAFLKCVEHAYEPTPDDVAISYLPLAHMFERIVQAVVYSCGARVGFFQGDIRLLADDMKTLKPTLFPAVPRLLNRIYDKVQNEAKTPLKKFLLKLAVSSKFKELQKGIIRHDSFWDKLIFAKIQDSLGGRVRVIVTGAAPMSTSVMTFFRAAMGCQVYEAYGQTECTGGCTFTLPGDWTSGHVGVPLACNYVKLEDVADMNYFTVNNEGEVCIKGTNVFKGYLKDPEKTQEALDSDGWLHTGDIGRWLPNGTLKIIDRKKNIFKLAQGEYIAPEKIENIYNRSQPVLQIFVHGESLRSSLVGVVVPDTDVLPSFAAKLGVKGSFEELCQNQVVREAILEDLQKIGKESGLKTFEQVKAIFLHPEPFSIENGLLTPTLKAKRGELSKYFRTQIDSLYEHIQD
Text: as §1

AACS = target: T4, AACS (Homo sapiens, UniProt Q86V21); assay: Acyl-CoA synthetases selectivity panel: AACS; assay type: biochemical; settings: human recombinant protein, substrate acetoacetyl, AMP readout by HPLC; read-out: HPLC based activity assays IC50 (UM) AACS
T4 construct: purchased Cusabio, China
T4 sequence (Q86V21 1-672): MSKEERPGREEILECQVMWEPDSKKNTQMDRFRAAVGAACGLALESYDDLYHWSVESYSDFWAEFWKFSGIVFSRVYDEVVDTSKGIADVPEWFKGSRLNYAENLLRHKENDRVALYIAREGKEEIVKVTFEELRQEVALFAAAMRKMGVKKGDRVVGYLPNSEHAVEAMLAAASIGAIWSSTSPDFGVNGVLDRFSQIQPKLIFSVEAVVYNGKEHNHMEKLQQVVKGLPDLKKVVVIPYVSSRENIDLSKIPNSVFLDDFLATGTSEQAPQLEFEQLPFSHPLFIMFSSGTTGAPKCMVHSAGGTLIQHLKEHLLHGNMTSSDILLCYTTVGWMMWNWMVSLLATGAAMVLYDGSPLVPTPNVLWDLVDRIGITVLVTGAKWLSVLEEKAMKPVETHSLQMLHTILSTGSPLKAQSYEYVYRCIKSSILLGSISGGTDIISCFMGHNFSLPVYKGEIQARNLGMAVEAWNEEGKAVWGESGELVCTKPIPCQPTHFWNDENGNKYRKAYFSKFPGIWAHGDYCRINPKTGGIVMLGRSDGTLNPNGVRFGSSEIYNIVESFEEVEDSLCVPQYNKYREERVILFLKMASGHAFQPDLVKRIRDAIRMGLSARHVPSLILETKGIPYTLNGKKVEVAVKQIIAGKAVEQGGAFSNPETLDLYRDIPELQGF
Text: as §1

T1 sequence (Q9NR19 whole entry): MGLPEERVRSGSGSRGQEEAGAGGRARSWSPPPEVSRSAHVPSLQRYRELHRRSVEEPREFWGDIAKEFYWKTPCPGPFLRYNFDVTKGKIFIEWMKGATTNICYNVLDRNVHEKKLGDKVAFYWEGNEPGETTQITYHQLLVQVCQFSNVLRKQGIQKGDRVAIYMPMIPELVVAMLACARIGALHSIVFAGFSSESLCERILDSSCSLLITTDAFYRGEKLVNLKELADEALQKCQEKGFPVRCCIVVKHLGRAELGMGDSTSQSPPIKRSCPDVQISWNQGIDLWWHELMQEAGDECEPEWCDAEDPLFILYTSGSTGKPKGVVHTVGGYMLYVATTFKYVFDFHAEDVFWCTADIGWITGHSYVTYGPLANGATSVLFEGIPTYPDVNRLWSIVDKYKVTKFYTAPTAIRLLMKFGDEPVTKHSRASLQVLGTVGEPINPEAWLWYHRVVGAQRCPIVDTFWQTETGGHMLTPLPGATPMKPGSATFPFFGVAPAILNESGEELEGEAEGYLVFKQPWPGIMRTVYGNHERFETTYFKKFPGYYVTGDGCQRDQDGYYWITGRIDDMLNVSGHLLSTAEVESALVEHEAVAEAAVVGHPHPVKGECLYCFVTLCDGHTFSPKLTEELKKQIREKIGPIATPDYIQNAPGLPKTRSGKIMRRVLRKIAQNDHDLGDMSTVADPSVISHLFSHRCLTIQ

COC(=O)c1cccc(N2N=C(C)C(C(=O)Nc3cccc(C(C)(F)F)c3)C2=O)c1 (stereo not shown) [compound 261, methyl 3-(4-((3-(1,1-difluoroethyl)phenyl)carbamoyl)-3-methyl-5-oxo-4,5-dihydro-1H-pyrazol-1-yl)benzoate]
Kd (ACSS2 [1]; Buffer A (no ATP, no CoA)): 0.46 ± 0.21 µM
Kd (ACSS2 [1]; Buffer B (+ATP), 0.3 mM ATP): 0.03 ± 0.01 µM
Kd (ACSS2 [1]; Buffer C (+ATP, +CoA), 0.3 mM ATP, 0.01 mM CoA): 0.04 ± 0.02 µM
Kd (ACSS2 [1]; Buffer D (+CoA), 0.01 mM CoA): 0.61 ± 0.17 µM
reduction of binding Kd when ATP was added to the buffer (ACSS2 [1]; Label Free MST): 10 fold
IC50 (ACSS1): 1 to 10 µM
thermal shift in the melting temperature of ACSS2 (ACSS2 [2]; 0.03 mg/ml ACSS2, compound at different concentrations): dose-dependent thermal shift in the melting temperature of ACSS2
thermal shift in the presence of ATP or ATP and CoA versus buffer alone (ACSS2 [2]; 0.3 mM ATP, 0.3 mM ATP + 0.01 mM CoA): higher in the presence of ATP or ATP and CoA
IC50 (ACSL5): > 100 µM
IC50 (AACS): 24 µM
